Reference: patent publication US20220306640A1, “HYDANTOIN DERIVATIVE” (ONO PHARMACEUTICAL CO., LTD., priority 2019, published 2022)

Legend:
DDR1 = biological target: T1, DDR1 (Homo sapiens, UniProt Q08345); experiment: Measurement of DDR1 inhibitory activity (LanthaScreen system, in vitro test); format: binding; settings: GST-DDR1, Kinase tracer 178
T1 construct: purchased Invitrogen
Method: Biological Experiment Example 1: Measurement of an DDR1 Inhibitory Activity (In Vitro Test)
An DDR1 enzyme inhibitory activity was measured by using LanthaScreen (registered trademark) system (Invitrogen) based on the attached instruction. The reagents used are shown below.
Assay buffer: 5× Kinase buffer A (Invitrogen) was diluted 5-fold with ddH2O.
1× Kinase Buffer A: 50 mmol/L HEPES pH 7.5, 10 mmol/L MgCl2, 1 mmol/L EGTA, 0.01% Brij-35.
2×DDR1 Solution: a solution containing […] GST-DDR1 (Invitrogen) was prepared by using Assay buffer.
2× Tracer/antibody solution: a solution containing 20 nmol/L Kinase tracer 178 (Invitorgen) and […] Eu-Anti-GST Antibody (Invitorogen) was prepared by using Assay buffer. Test compound solution: a solution containing a test compound of 2-fold concentration with respect to the final concentration was prepared by 50-fold diluting a DMSO solution of test compound of each concentration with the Assay buffer.
• 1 Add 5 μL 2×DDR1 Solution to proxiplate (PerkinElmer) • 2 Add 5 μL test compound solution to proxiplate • 3 Incubate for 15 min at RT • 4 Add 5 μL 2× Tracer/Antibody solution to all well Incubate 1 h at RT • 6 Read LANCE Eu on Envision (PerkinElmer) (Ex: 320 nm/Em 665 nm & 615 nm)
In the low control group, 5 μL Assay buffer was added instead of 5 μL 2×DDR1 Solution and the final 1% DMSO solution was added instead of test compound solution.
In the high control group, the final 1% DMSO solution was added instead of test compound solution.
(§1) The inhibition rate (%) in the test compound group was calculated based on the following mathematical formula.
% inhibition=100−100*(assay value of test compound−A)/(B−A) [Math. 1]
A: average value of low control group B: average value of high control group
Values of 50% inhibition rate (IC50 values) of the test compound were calculated from the inhibition curve based on the inhibition rate of the test compounds in each concentration.

[1] = biological target: T2, DDR1 phosphorylation in T-47D (ATCC, HTB-133) cells (Homo sapiens, UniProt Q08345); experiment: Measurement of DDR1 phosphorylation suppression rate by using T-47D cells (p-DDR1 ELISA); format: cell-based; settings: collagen Type I 10 μg/ml, p-DDR1 (panTyr) ELISA
T2 construct: host or cells: T-47D
T2 sequence (Q08345 19-913): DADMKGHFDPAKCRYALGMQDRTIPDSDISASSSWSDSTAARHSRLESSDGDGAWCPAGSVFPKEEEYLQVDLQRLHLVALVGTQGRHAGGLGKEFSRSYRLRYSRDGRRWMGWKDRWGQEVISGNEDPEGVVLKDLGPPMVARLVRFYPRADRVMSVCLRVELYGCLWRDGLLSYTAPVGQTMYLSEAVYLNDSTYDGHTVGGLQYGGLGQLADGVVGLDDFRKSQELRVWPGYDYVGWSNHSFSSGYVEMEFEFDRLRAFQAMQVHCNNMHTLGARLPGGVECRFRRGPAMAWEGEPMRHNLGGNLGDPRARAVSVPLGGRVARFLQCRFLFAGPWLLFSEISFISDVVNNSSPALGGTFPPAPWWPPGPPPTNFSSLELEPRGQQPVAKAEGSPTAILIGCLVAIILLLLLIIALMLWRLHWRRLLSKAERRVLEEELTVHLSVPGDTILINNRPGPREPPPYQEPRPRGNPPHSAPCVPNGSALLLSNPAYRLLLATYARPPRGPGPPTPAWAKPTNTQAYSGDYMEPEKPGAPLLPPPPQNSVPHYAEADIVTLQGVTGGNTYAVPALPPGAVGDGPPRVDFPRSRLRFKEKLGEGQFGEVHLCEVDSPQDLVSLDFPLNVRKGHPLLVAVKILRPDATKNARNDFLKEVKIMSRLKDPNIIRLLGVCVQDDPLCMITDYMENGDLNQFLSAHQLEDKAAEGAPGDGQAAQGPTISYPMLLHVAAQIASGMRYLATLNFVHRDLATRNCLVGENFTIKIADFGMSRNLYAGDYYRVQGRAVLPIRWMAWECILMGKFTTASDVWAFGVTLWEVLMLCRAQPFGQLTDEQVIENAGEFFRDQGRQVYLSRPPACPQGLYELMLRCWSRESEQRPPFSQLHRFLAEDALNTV
Method: Biological Example 2: Measurement of DDR1 Phosphorylation Suppression Rate by Using T-47D (ATCC, HTB-133) cells
T-47D cells should be in culture for at least 7 days before using in the assay.
Cell culture medium: RPMI 1640 (HyClone) containing 10% Heat-FBS (HyClone) was prepared.
Assay medium: RPMI 1640 containing 0.1% BSA (solarbio) was prepared.
Collagen Type I (rat tail) solution: Assay medium containing 200 μg/mL Collagen I, rat tail (Gibco) was prepared.
Cell lysis buffer: a solution containing IX cell lysis buffer (CST) and 1× protease and phosphatase inhibitor cocktail (Thermofisher) was prepared by using ddH2O.
• 1. Collect cells into tubes and centrifuge at 1200 rpm for 5 min, at room temperature. Re-suspend the cells in cell culture medium pre-warmed to room temperature. • 2. Count cells and suspend at a density of 2×10^5/ml of cell culture medium. Plate the cells at 100 μL per well (Corning 3599 96-well plate, 2×10^4 cells per well final), mixing the cells well between each draw of the pipettor. • 3. Put lid on cell plate and place into the incubator at 37° C., 5% CO2 • 4. Culture cell overnight
• 1. Remove the plate from the incubator • 2. Cell medium is replaced with the 90 μL Assay medium.
• 1. Compound plates are pre-titrated using DMSO (10-fold dilution for 6 points) • 2. Dilute test compound using assay medium; Transfer 1 μL compound to other 96 well plate and then add 49 μL assay medium to each well (50 fold dilution). • 3. Add 5 μL the diluted test compound solution to the appropriate wells by pipettor. Compound final concentration is start from […] and DMSO final concentration is 0.1 • 4. Tap the plates gently to mix in compound. Reseal the plate with a lid and place in the incubator again, for 24 h.
• 1. Diluted collagen Type I in assay medium to the 200 μg/ml concentration • 2. Using the pipettor adds 5 μL of 200 μg/mL collagen Type I solution to the cell plate (compound well and High control well, collagen final conc. is 10 μg/ml). Add assay medium buffer to the control wells (low control well) • 3. Reseal the plate with a lid and place in the incubator. Incubate 24 h for collagen type I
• 1. After incubation, add 100 µL per well Cell lysis buffer. • 2. Incubate 30 min on ice, then freezing to −80° C. to get the fully cell lysates. • 3. Transfer cell lysates to new plate • 4. Centrifuge for 30 min (×4000 rpm) at 4° C. Then transfer the supernatant to a new plate.
p-DDR1 (panTyr) ELISA kit (CST) was used in the study. The measurement was carried out according to the attached instruction.
as §1
% inhibition=100−100*(assay value of test compound−A)/(B−A) [Math. 2]
A: average value of low control group B: average value of high control group Values of 50% inhibition rate (IC50 values) of the test compound were calculated from the inhibition curve based on the inhibition rate of the test compounds in each concentration.

KDR = KDR (Homo sapiens, UniProt P35968); experiment: Evaluation of kinase selectivity: % inhibition rate of KDR at 1 μmol/L; format: biochemical; settings: compound at 1 μmol/L
Chain of KDR (P35968 20-1356, species assumed): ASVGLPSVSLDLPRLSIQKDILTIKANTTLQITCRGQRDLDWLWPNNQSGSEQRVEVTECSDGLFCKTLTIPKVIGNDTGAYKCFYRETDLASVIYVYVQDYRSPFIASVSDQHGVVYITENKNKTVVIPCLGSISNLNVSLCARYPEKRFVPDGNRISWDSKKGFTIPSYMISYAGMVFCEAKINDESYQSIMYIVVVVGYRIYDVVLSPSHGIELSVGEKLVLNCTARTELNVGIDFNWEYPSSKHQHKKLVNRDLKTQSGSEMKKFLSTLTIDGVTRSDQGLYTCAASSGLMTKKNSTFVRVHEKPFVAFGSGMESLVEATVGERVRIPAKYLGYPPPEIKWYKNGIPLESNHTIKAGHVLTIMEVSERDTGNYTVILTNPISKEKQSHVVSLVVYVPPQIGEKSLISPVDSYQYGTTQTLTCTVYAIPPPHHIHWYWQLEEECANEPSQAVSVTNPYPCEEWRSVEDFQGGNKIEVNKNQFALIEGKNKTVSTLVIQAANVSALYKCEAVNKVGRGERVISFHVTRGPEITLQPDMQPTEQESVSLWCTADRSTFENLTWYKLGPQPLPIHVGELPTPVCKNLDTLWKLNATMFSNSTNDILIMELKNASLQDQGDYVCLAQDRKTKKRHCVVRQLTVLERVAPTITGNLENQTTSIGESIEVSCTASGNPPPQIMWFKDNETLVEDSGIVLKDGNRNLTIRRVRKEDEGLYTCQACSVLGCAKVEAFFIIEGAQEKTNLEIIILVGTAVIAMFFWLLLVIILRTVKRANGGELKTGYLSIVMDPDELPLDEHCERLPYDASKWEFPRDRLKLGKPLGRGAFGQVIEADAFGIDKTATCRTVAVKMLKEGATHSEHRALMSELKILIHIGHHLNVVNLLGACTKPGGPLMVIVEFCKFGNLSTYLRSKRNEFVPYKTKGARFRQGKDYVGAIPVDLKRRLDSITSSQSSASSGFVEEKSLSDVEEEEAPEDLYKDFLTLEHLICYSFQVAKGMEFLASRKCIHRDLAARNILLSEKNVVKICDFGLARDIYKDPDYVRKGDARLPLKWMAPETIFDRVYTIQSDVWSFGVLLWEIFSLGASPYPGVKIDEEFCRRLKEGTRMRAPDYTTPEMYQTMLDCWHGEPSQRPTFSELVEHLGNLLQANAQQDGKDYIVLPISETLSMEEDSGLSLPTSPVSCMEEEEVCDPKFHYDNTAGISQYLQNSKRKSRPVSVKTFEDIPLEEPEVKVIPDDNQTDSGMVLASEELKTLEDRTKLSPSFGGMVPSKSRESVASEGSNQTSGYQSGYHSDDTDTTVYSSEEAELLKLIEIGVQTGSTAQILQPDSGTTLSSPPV
Method: (§2) Biological Example 3: Evaluation of Kinase Selectivity
(§3) % inhibition rate with respect to various kinases (for example KDR etc.) of 1 μmol/L the test compound is measured.
(§4) A general assay condition (substrates, cofactor, ATP concentrations and reaction time etc.) suitable for respective kinase enzyme inhibition activity test is used.
(§5) 1 Prepare the test compounds into 1 mmol/L DMSO solution. 2 Transfer 20 nL of stock to 384 assay plate. Use DMSO as High and Low controls.
(§6) 1 Prepare the 1.3× Enzyme solution containing enzyme, substrate and cofactors. 2 Add 15 μL of 1.3× Enzyme solutions to each well and incubate the plate at room temperature for 30 min. 3 Initiate the reaction by adding 5 μL of 4×ATP solution. The final volume of each well should be 20 μL. 4 Incubate the plate at room temperature for reaction and add 75 μL of stopping buffer (containing 0.5 mol/L EDTA) to terminate the reaction.
(§7) Analyze the sample of each well using EZ reader (PerkinElmer).
(§8) Calculate the % Inhibition using read conversion ratio (CR) following the equation as below.
(§9) Use well treated with DMSO as High Control Use well without enzyme as Low Control

Flt-3 = biological target: T3, Flt-3 (Homo sapiens, UniProt P36888); experiment: Evaluation of kinase selectivity: % inhibition rate of Flt-3 at 1 μmol/L; format: biochemical; settings: compound at 1 μmol/L
T3 sequence (P36888 27-993): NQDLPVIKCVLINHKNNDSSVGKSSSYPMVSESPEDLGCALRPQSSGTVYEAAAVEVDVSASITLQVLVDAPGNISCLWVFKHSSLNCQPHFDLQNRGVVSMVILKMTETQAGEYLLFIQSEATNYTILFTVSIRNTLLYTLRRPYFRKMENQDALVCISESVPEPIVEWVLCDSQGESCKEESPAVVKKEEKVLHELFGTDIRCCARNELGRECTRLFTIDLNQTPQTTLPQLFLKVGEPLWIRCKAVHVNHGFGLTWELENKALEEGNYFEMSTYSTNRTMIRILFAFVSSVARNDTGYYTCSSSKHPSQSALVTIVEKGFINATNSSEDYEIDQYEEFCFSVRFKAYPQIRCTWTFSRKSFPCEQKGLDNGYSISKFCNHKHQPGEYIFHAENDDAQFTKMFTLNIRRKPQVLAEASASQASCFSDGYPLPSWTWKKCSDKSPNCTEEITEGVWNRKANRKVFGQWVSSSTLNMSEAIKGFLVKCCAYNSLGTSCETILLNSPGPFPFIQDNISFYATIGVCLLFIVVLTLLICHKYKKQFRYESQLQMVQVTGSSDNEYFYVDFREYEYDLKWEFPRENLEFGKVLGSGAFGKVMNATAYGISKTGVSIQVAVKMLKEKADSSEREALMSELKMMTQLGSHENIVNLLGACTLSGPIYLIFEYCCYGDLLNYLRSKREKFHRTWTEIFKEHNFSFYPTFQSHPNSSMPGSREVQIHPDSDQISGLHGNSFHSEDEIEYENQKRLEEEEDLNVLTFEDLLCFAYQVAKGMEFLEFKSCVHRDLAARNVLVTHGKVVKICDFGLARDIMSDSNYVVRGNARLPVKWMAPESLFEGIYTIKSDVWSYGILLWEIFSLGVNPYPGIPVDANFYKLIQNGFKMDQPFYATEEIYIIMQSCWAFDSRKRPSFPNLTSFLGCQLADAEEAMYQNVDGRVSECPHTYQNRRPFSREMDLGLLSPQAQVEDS
Method: as §2, §3, §4, §5, §6, §7, §8, §9

ROCK = ROCK (Homo sapiens, UniProt O75116); experiment: Evaluation of kinase selectivity: % inhibition rate of ROCK at 1 μmol/L; format: biochemical; settings: compound at 1 μmol/L; read-out: % inhibition rate of ROCK2
Chain of ROCK (O75116 whole entry): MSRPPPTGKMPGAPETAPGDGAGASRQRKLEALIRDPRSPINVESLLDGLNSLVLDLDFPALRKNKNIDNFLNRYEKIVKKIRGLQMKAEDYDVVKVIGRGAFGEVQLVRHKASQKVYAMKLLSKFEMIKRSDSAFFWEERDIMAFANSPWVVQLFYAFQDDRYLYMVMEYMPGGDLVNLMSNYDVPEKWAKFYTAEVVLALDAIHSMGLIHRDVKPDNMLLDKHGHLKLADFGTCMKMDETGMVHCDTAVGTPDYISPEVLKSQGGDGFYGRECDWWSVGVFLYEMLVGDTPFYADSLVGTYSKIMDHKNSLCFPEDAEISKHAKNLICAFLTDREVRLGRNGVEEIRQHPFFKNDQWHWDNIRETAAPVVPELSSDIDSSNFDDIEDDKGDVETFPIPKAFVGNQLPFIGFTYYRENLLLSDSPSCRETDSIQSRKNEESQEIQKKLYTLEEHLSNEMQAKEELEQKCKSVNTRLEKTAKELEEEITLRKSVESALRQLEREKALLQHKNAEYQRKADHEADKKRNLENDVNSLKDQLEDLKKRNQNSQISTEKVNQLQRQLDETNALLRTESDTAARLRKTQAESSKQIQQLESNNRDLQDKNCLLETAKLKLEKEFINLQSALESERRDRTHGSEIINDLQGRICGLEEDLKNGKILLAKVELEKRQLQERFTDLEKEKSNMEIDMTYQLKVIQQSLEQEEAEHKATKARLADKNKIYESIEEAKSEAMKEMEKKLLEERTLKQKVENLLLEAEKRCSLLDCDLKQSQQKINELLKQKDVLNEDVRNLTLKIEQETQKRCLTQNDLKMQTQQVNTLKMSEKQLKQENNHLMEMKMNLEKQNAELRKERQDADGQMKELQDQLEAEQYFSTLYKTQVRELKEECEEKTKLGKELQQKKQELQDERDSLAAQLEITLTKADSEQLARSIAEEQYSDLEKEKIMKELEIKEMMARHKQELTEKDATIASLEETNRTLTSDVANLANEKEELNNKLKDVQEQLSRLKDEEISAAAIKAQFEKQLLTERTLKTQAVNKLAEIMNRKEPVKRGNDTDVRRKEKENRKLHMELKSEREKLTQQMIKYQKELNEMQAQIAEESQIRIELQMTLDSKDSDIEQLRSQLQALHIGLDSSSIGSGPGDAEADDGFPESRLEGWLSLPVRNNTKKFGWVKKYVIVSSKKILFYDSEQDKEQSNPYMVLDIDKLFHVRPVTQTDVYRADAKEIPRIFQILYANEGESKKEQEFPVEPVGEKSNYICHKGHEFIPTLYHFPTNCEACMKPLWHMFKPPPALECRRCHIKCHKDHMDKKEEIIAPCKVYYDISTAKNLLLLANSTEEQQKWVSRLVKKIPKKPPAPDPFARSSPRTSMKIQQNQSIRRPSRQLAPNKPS
Method: as §2, §3, §4, §5, §6, §7, §8, §9

T1 sequence (Q08345 19-913): as the sequence (Q08345 19-913) above

SMILES	IC50 (DDR1) [nM]	IC50 [1] [nM]	inhibition at 1 µM (KDR) [%]	inhibition at 1 µM (Flt-3) [%]	inhibition at 1 µM (ROCK) [%]
O=C1CN(c2cncc(C(F)(F)F)c2)C(=O)N1c1ccc(Oc2cnc3[nH]ncc3c2)cc1 [Example 1(11), 3-[4-(1H-pyrazolo[3,4-b]pyridin-5-yloxy)phenyl]-1-[5-(trifluoromethyl)-3-pyridinyl]-2,4-imidazolidinedione]	1	1	2	16	-2
Cc1cc(Oc2ccnc(N)n2)ccc1N1C(=O)CN(c2cncc(C(F)(F)F)c2)C1=O [Example 2, 3-{4-[(2-amino-4-pyrimidinyl)oxy]-2-methylphenyl}-1-[5-(trifluoromethyl)-3-pyridinyl]-2,4-imidazolidinedione]	5	3	1	4	-5
O=C1CN(c2cncc(C(F)(F)F)c2)C(=O)N1C12CCC(Oc3ncnc4[nH]ccc34)(CC1)C2 [Example 3(65), 3-[4-(7H-pyrrolo[2,3-d]pyrimidin-4-yloxy)bicyclo[2.2.1]hept-1-yl]-1-[5-(trifluoromethyl)-3-pyridinyl]-2,4-imidazolidinedione]	3	2	-1	5	5
O=C1CN(c2cncc(C(F)(F)F)c2)C(=O)N1C12CCC(Oc3ncnc4[nH]cc(F)c34)(CC1)C2 [Example 42(1), 3-{4-[(5-fluoro-7H-pyrrolo[2,3-d]pyrimidin-4-yl)oxy]bicyclo[2.2.1]hept-1-yl}-1-[5-(trifluoromethyl)-3-pyridinyl]-2,4-imidazolidinedione]		8	-3	-2	-8
